Data published in patent publication US20260234161A1, “RIFABUTIN ANALOGS FOR THE TREATMENT OF BACTERIAL DISEASES” (BIOVERSYS AG, priority 2023, published 2026).
Converted amounts (≈) assume the structure as drawn. Read-outs that look alike come from different tables or passages of the source.

Key:
Type in all cases: cell-based
[1] = tested on: S. aureus (UAMS-1625 strain); assay: MIC by broth microdilution, S. aureus; conditions: Staphylococcus aureus, 20 h, read-out: MIC S. aureus
Protocol: (§1) MIC values were determined by broth microdilution method according to the CLSI guidelines with the following exceptions: MIC against A. baumannii was performed in RPMI medium supplemented with 10% FCS and MIC against M. abscessus was performed in Middlebrook 7H9 broth supplemented with Middlebrook ADC growth supplement (10%; see column “M. abscessus 7H9”). MIC forM abscessus was determined a second time in standard cation adjusted Mueller Hinton broth without growth supplement (see colum “M. abscessus MH”). All other MIC were performed in standard cation adjusted Mueller Hinton broth, supplemented with Middlebrook ADC growth supplement (5%) for the slow growing mycobacteria (M. xenopi, M. kansasii and M. avium).
(§2) The following procedure applies to all species tested, except forM xenopi. From a fresh culture plate (from overnight to several days depending on the bacteria), cells were resuspended in 0.9% (w/v) saline solution and bacterial inoculum was prepared in the respective testing medium with 5×10^5 CFU/mL. For M. xenopi, the inoculum was prepared from a fresh liquid culture (7H9+ADC). The appropriate volumes of a 10 mg/mL compound solution were directly dispensed in the 96-well assay plate using a digital dispenser to create two-fold dilution series from 32 to 0.002 μg/mL final concentration for A. baumannii and S. aureus; from 16 to 0.016 μg/mL for M. abscessus and M. avium; and from 1 to 6×10^−5 μg/mL for M. kansasii and M. xenopi. 100 μL of bacterial suspension was finally added to the compounds. Plates were covered and incubated without shaking at 35° C. for 20 hours for A. baumanii and S. aureus; at 30° C. for 4 days for M. abscessus; and at 37° C. for 7 days (at least) for M. kansasii (covered with aluminum foil to avoid light exposure), M. avium and M. xenopi. Every experiment contained an antibiotic as quality control. MIC was determined visually as the lowest concentration of a compound that prevents visible growth of the bacteria.
(§3) The in vitro activity of compounds described herein was determined against S. aureus (UAMS-1625 strain), A. baumannii (HUMC1 strain), M. abscessus (ATCC 19977), M. kansasii (ATCC 12478), M. avium (ATCC 25291), and M. xenopi (ATCC 19250).

[2] = tested on: M. abscessus (ATCC 19977); assay: MIC by broth microdilution, M. abscessus in cation adjusted Mueller Hinton broth; conditions: Mycobacteroides abscessus, ATCC19977, 96 h, read-out: MIC M. abscessus MH
Protocol: as §1, §2, §3

[3] = tested on: M. abscessus (ATCC 19977); assay: MIC by broth microdilution, M. abscessus in Middlebrook 7H9 broth + ADC; conditions: Mycobacteroides abscessus, ATCC19977, 96 h; ATCC 19977; Middlebrook 7H9 broth + ADC growth supplement (10%); 30° C., 4 days; read-out: MIC M. abscessus 7H9
Protocol: as §1, §2, §3

[4] = tested on: A. baumannii (HUMC1 strain); assay: MIC by broth microdilution, A. baumannii (RPMI + 10% FCS); conditions: Acinetobacter baumannii, read-out: MIC A. baumannii
Protocol: as §1, §2, §3

[5] = ATCC 19977, cation adjusted Mueller Hinton broth without growth supplement, 30° C., 4 days
[6] = HUMC1 strain, RPMI medium + 10% FCS, 35° C., 20 hours

| Compound | MIC [1] [µg/mL] | MIC [2, 5] [µg/mL] | MIC [3] [µg/mL] | MIC [4, 6] [µg/mL] | MIC [2] [µg/mL] | MIC ([4]; 20 h) [µg/mL] |
| --- | --- | --- | --- | --- | --- | --- |
| CO[C@H]1/C=C/O[C@@]2(C)Oc3c(C)c(O)c4c(c3C2=O)C2=NC3(CCN(CC(C)C)CC3)NC2=C(NC(=O)/C(C)=C\C=C\[C@H](C)[C@H](O)[C@@H](C)[C@@H](O)[C@@H](C)[C@H](OC(=O)N2CCC(N(C)C)CC2)[C@@H]1C)C4=O [Compound 3] | 0.03 (≈ 0.0313 µM) | 4 (≈ 4.17 µM) | 0.5 | ≤ 0.002 | – | – |
| CO[C@H]1/C=C/O[C@@]2(C)Oc3c(C)c(O)c4c(c3C2=O)C2=NC3(CCN(CC(C)C)CC3)NC2=C(NC(=O)/C(C)=C\C=C\[C@H](C)[C@H](O)[C@@H](C)[C@@H](O)[C@@H](C)[C@H](OC(=O)N2CCC(Nc3cccnc3)CC2)[C@@H]1C)C4=O [Compound 5] | 0.125 (≈ 0.124 µM) | 4 (≈ 3.97 µM) | 1 | 0.004 | – | – |
| CO[C@H]1/C=C/O[C@@]2(C)Oc3c(C)c(O)c4c(c3C2=O)C2=NC3(CCN(CC(C)C)CC3)NC2=C(NC(=O)/C(C)=C\C=C\[C@H](C)[C@H](O)[C@@H](C)[C@@H](O)[C@@H](C)[C@H](OC(=O)N2CCN(C)CC2)[C@@H]1C)C4=O [Compound 6] | 0.06 (≈ 0.0644 µM) | 4 (≈ 4.3 µM) | 1 | 0.06 | – | – |
| CO[C@H]1/C=C/O[C@@]2(C)Oc3c(C)c(O)c4c(c3C2=O)C2=NC3(CCN(CC(C)C)CC3)NC2=C(NC(=O)/C(C)=C\C=C\[C@H](C)[C@H](O)[C@@H](C)[C@@H](O)[C@@H](C)[C@H](OC(=O)N2CCN(C3CCN(C)CC3)CC2)[C@@H]1C)C4=O [Compound 11] | 0.125 (≈ 0.123 µM) | 4 (≈ 3.94 µM) | 0.5 | ≤ 0.002 | – | – |
| CO[C@H]1/C=C/O[C@@]2(C)Oc3c(C)c(O)c4c(c3C2=O)C2=NC3(CCN(CC(C)C)CC3)NC2=C(NC(=O)/C(C)=C\C=C\[C@H](C)[C@H](O)[C@@H](C)[C@@H](O)[C@@H](C)[C@H](OC(=O)N2CCC(n3ccnc3)CC2)[C@@H]1C)C4=O [Compound 61] | 0.03 (≈ 0.0305 µM) | 4 (≈ 4.07 µM) | – | ≤ 0.016 | – | – |
| CO[C@H]1/C=C/O[C@@]2(C)Oc3c(C)c(O)c4c(c3C2=O)C2=NC3(CCN(CC(C)C)CC3)NC2=C(NC(=O)/C(C)=C\C=C\[C@H](C)[C@H](O)[C@@H](C)[C@@H](O)[C@@H](C)[C@H](OC(=O)N2CCC(N3CCCC3)CC2)[C@@H]1C)C4=O [Compound 62] | 0.06 (≈ 0.0609 µM) | 1 (≈ 1.01 µM) | – | ≤ 0.016 | – | – |
| CO[C@H]1/C=C/O[C@@]2(C)Oc3c(C)c(O)c4c(c3C2=O)C2=NC3(CCN(CC(C)C)CC3)NC2=C(NC(=O)/C(C)=C\C=C\[C@H](C)[C@H](O)[C@@H](C)[C@@H](O)[C@@H](C)[C@H](OC(=O)N2CCC3CCCCC3C2)[C@@H]1C)C4=O (stereo partly shown) [Compound 64] | 1 (≈ 1.03 µM) | 4 (≈ 4.12 µM) | – | 0.5 | – | – |
| CO[C@H]1/C=C/O[C@@]2(C)Oc3c(C)c(O)c4c(c3C2=O)C2=NC3(CCN(CC(C)C)CC3)NC2=C(NC(=O)/C(C)=C\C=C\[C@H](C)[C@H](O)[C@@H](C)[C@@H](O)[C@@H](C)[C@H](OC(=O)N2CCCC3(CN(CC5CCCCC5)C3)C2)[C@@H]1C)C4=O [Compound 65] | 0.5 (≈ 0.475 µM) | 0.125 (≈ 0.119 µM) | – | 0.004 | – | – |
| CO[C@H]1/C=C/O[C@@]2(C)Oc3c(C)c(O)c4c(c3C2=O)C2=NC3(CCN(CC(C)C)CC3)NC2=C(NC(=O)/C(C)=C\C=C\[C@H](C)[C@H](O)[C@@H](C)[C@@H](O)[C@@H](C)[C@H](OC(=O)N2CC3(CCN(CC5CCCCC5)CC3)C2)[C@@H]1C)C4=O [Compound 66] | 0.125 (≈ 0.119 µM) | 0.125 (≈ 0.119 µM) | – | 0.004 | – | – |
| CCN1CCC2(CC1)CCN(C(=O)O[C@H]1[C@H](C)[C@H](O)[C@H](C)[C@@H](O)[C@@H](C)/C=C/C=C(/C)C(=O)NC3=C4NC5(CCN(CC(C)C)CC5)N=C4c4c(c(O)c(C)c5c4C(=O)[C@@](C)(O/C=C/[C@H](OC)[C@H]1C)O5)C3=O)CC2 [Compound 68] | 0.06 (≈ 0.0592 µM) | 1 (≈ 0.987 µM) | – | 0.003 | – | – |
| CO[C@H]1/C=C/O[C@@]2(C)Oc3c(C)c(O)c4c(c3C2=O)C2=NC3(CCN(CC(C)C)CC3)NC2=C(NC(=O)/C(C)=C\C=C\[C@H](C)[C@H](O)[C@@H](C)[C@@H](O)[C@@H](C)[C@H](OC(=O)N2CCC3(CC2)CCN(C(C)C)CC3)[C@@H]1C)C4=O [Compound 69] | 0.125 (≈ 0.122 µM) | 1 (≈ 0.973 µM) | – | 0.002 | – | – |
| CO[C@H]1/C=C/O[C@@]2(C)Oc3c(C)c(O)c4c(c3C2=O)C2=NC3(CCN(CC(C)C)CC3)NC2=C(NC(=O)/C(C)=C\C=C\[C@H](C)[C@H](O)[C@@H](C)[C@@H](O)[C@@H](C)[C@H](OC(=O)N2CCC3(CCN(CC(C)C)CC3)CC2)[C@@H]1C)C4=O [Compound 70] | 0.125 (≈ 0.12 µM) | 0.25 (≈ 0.24 µM) | – | 0.004 | – | – |
| CO[C@H]1/C=C/O[C@@]2(C)Oc3c(C)c(O)c4c(c3C2=O)C2=NC3(CCN(CC(C)C)CC3)NC2=C(NC(=O)/C(C)=C\C=C\[C@H](C)[C@H](O)[C@@H](C)[C@@H](O)[C@@H](C)[C@H](OC(=O)N2CCC3(CCN(CCC(C)C)CC3)CC2)[C@@H]1C)C4=O [Compound 71] | 0.25 (≈ 0.237 µM) | 0.25 (≈ 0.237 µM) | – | 0.008 | – | – |
| CO[C@H]1/C=C/O[C@@]2(C)Oc3c(C)c(O)c4c(c3C2=O)C2=NC3(CCN(CC(C)C)CC3)NC2=C(NC(=O)/C(C)=C\C=C\[C@H](C)[C@H](O)[C@@H](C)[C@@H](O)[C@@H](C)[C@H](OC(=O)NC2CCN(C)CC2)[C@@H]1C)C4=O [Compound 73] | 0.03 (≈ 0.0317 µM) | – | – | – | 1 (≈ 1.06 µM) | 0.001 |
| CCN1CCC(NC(=O)O[C@H]2[C@H](C)[C@H](O)[C@H](C)[C@@H](O)[C@@H](C)/C=C/C=C(/C)C(=O)NC3=C4NC5(CCN(CC(C)C)CC5)N=C4c4c(c(O)c(C)c5c4C(=O)[C@@](C)(O/C=C/[C@H](OC)[C@H]2C)O5)C3=O)CC1 [Compound 74] | 0.03 (≈ 0.0313 µM) | 2 (≈ 2.09 µM) | – | ≤ 0.001 | – | – |
| CCCN1CCC(NC(=O)O[C@H]2[C@H](C)[C@H](O)[C@H](C)[C@@H](O)[C@@H](C)/C=C/C=C(/C)C(=O)NC3=C4NC5(CCN(CC(C)C)CC5)N=C4c4c(c(O)c(C)c5c4C(=O)[C@@](C)(O/C=C/[C@H](OC)[C@H]2C)O5)C3=O)CC1 [Compound 75] | 0.06 (≈ 0.0617 µM) | 1 (≈ 1.03 µM) | – | 0.001 | – | – |
| CO[C@H]1/C=C/O[C@@]2(C)Oc3c(C)c(O)c4c(c3C2=O)C2=NC3(CCN(CC(C)C)CC3)NC2=C(NC(=O)/C(C)=C\C=C\[C@H](C)[C@H](O)[C@@H](C)[C@@H](O)[C@@H](C)[C@H](OC(=O)NC2CCN(C(C)C)CC2)[C@@H]1C)C4=O [Compound 76] | 0.03 (≈ 0.0308 µM) | 2 (≈ 2.06 µM) | – | ≤ 0.001 | – | – |
| CO[C@H]1/C=C/O[C@@]2(C)Oc3c(C)c(O)c4c(c3C2=O)C2=NC3(CCN(CC(C)C)CC3)NC2=C(NC(=O)/C(C)=C\C=C\[C@H](C)[C@H](O)[C@@H](C)[C@@H](O)[C@@H](C)[C@H](OC(=O)NC2CCN(C3CCOCC3)CC2)[C@@H]1C)C4=O [Compound 78] | 0.06 (≈ 0.0591 µM) | – | – | – | 2 (≈ 1.97 µM) | ≤ 0.001 |
| CO[C@H]1/C=C/O[C@@]2(C)Oc3c(C)c(O)c4c(c3C2=O)C2=NC3(CCN(CC(C)C)CC3)NC2=C(NC(=O)/C(C)=C\C=C\[C@H](C)[C@H](O)[C@@H](C)[C@@H](O)[C@@H](C)[C@H](OC(=O)N(C)C2CC2)[C@@H]1C)C4=O [Compound 82] | 0.06 (≈ 0.0665 µM) | 4 (≈ 4.43 µM) | – | 0.008 | – | – |
| CO[C@H]1/C=C/O[C@@]2(C)Oc3c(C)c(O)c4c(c3C2=O)C2=NC3(CCN(CC(C)C)CC3)NC2=C(NC(=O)/C(C)=C\C=C\[C@H](C)[C@H](O)[C@@H](C)[C@@H](O)[C@@H](C)[C@H](OC(=O)N(C)C(C)C)[C@@H]1C)C4=O [Compound 83] | 0.125 (≈ 0.138 µM) | 2 (≈ 2.21 µM) | – | 0.016 | – | – |
